Measurements as given in patent publication US9217743B2, “Screening method utilizing thalidomide-targeting factor” (Tokyo Institute of Technology, priority 2009, dated 2015).
Changes are numbered by the printed parent chain. Entries after “also recorded” stand apart in the source; their conditions may differ.

How the values were obtained:
CRBN = CRBN (Homo sapiens, UniProt Q96SW2); test: Elution of CRBN from thalidomide-immobilized beads by test compound, Western blotting
Protocol: Firstly, thalidomide-immobilized FG beads are prepared. The immobilized beads are mixed and incubated with extracts of CRBN-expressing cells or recombinant proteins for one hour or longer in a rotator at 5 rpm and 4° C. Then, after the beads are washed with a buffer, for example, a buffer containing a thalidomide derivative as a test substance is passed through the beads to see whether CRBN is eluted. Examples of a detection method include Western blotting, dot blotting, CBB staining, and silver staining.

CRBN YW/AA (Y384A/W386A) = molecular target: T1, CRBN YW/AA (Y384A/W386A) (Homo sapiens, UniProt Q96SW2, W386A/Y384A); test: Binding of CRBN double mutant from 293T extracts to thalidomide-immobilized beads
T1 construct: expressed in transfected cells; host or cells: 293T
T1 sequence (Q96SW2 whole entry Y384A/W386A): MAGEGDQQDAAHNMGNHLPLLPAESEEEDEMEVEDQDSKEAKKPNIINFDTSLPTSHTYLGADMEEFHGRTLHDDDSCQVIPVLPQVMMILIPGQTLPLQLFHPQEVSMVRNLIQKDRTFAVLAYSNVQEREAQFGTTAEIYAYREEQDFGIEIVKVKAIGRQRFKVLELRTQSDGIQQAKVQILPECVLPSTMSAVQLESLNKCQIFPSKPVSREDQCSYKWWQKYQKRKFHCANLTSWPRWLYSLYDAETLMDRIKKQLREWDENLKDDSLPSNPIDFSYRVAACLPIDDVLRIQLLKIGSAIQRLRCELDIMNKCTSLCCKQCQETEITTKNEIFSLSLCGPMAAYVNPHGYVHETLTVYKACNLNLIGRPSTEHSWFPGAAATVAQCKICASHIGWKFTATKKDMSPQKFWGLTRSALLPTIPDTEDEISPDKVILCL
Description: First, thalidomide-binding region was investigated by using the N-terminal and C-terminal deletion mutants. […] The present inventors investigated whether this CRBN YW/AA functionally active in the cells. The subcellular localization of this mutant was indistinguishable from that of wild-type CRBN.
(§1) Recombinant CRBN-FLAG and DDB1-V5-His proteins were expressed in the insect Sf9 cells by using the Bac-to-bac baculovirus expression system (Invitrogen) and purified using anti-FLAG M2 agarose beads (Sigma) and Ni-NTA agarose beads (Qiagen), respectively. Purified CRBN-FLAG and/or DDB1-V5-His were mixed with thalidomide-immobilized beads, and the bound proteins were eluted with an SDS sample buffer. For analysis of CRBN-deletion mutant, GST-fused CRBN and its mutants were expressed in E. coli BL21 and purified using glutathione Sepharose (GE Healthcare). CRBN mutants were overexpressed in 293T cells by transfection using Lipofectamine 2000 (Invitrogen). Subsequent binding assays were carried out as described above.

DDB1 = test: Elution of DDB1 from thalidomide-immobilized beads by test compound, Western blotting; conditions: Example 6; 293T extracts; elution with 1 mM compound
CRBN YW/AA = molecular target: T2, CRBN YW/AA (Homo sapiens, UniProt Q96SW2, W386A/Y384A); test: Autoubiquitination in live cells, 293T cells stably expressing FH-CRBN YW/AA; assay type: cell-based; conditions: thalidomide 10, 30 and 100 μM, with MG132
T2 construct: expressed in transfected cells; host or cells: 293T stably expressing FH-CRBN YW/AA
T2 sequence (Q96SW2 whole entry Y384A/W386A): as above
T2 sequence (Q16531 2-1140 partner limits assumed): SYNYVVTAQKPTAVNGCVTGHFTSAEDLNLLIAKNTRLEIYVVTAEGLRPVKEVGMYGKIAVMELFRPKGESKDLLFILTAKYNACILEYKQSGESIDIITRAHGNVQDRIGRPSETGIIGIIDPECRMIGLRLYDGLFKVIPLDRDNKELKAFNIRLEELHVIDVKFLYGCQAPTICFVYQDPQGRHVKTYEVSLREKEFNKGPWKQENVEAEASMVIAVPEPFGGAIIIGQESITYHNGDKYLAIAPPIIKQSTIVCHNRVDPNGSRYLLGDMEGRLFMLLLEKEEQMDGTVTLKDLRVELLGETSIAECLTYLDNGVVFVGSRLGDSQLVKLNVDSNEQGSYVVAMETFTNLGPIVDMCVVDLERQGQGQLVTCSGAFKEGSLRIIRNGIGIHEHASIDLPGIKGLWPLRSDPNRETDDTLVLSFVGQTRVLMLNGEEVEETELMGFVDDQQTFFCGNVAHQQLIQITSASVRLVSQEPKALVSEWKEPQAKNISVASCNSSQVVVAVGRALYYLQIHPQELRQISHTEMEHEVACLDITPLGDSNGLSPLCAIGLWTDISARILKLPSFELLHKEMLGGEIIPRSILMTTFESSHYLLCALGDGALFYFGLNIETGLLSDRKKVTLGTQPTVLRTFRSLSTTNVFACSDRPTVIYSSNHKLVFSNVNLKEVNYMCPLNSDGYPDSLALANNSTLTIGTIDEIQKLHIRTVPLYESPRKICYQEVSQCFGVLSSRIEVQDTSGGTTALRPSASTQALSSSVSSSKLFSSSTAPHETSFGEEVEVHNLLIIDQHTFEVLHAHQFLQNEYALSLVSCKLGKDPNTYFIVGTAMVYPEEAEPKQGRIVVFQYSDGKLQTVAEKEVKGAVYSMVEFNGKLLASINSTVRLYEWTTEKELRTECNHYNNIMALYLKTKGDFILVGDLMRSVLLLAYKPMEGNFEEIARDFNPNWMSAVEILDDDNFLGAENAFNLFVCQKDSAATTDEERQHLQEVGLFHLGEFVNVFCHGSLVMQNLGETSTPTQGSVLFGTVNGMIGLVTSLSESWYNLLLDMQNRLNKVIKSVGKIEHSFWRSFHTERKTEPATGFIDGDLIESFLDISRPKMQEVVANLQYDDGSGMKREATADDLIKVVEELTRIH
T2 sequence (Q13619 whole entry partner): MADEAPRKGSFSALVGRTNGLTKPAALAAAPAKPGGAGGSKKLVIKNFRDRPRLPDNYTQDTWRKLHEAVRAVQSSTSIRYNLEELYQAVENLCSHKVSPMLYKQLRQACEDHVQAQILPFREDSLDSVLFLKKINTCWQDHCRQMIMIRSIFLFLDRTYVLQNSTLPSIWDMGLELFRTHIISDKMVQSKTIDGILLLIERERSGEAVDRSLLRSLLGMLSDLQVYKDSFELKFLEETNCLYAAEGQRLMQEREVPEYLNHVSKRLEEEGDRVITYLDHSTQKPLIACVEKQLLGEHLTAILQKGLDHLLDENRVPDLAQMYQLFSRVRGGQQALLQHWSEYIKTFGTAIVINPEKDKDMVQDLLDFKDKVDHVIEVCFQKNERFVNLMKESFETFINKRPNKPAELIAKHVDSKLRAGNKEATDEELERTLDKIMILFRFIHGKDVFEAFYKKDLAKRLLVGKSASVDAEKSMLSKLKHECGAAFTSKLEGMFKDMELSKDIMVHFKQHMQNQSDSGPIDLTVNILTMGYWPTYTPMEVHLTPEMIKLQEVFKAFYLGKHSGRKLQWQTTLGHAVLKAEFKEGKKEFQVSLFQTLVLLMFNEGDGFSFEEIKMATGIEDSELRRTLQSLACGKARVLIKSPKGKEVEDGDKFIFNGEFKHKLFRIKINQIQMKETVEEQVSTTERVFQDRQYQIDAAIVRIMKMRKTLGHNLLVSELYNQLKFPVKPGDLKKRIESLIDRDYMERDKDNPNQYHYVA
T2 sequence (P62877 2-108 partner limits assumed): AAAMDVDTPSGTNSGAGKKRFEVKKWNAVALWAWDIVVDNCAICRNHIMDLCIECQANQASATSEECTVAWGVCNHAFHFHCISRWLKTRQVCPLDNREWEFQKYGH
Protocol: The present inventors examined whether thalidomide would inhibit ubiquitination of the CRBN-containing E3 complex. 293T cells stably expressing FH-CRBN or FH-CRBN YW/AA were treated with MG132 and thalidomide (10, 30, and 100 μM) at similar concentration relative to the therapeutic doses used in human.
The assays were performed as described (Cited Literature 38). 293T cells stably expressing FH-CRBN or its mutant were treated with 10 μM MG132 or DMSO (vehicle) for three hours. The cells lysate were prepared using RIPA buffer containing 25 μM MG132 and 10 mM N-ethylmaleimide. FH-CRBN was immunoprecipitated and analyzed as described above. Various concentrations of thalidomide were added to cells one hour prior to MG132 treatment.

CRBN-FLAG = molecular target: T3, CRBN-FLAG (Homo sapiens, UniProt Q96SW2); test: In vitro binding assay of purified recombinant protein with thalidomide-immobilized beads
T3 construct: made in house; host or cells: Sf9 insect cells (Bac-to-bac baculovirus)
T3 sequence (Q96SW2 whole entry): as the sequence (Q96SW2 whole entry Y384A/W386A) above, with A384Y, A386W counted along it
Description: as §1

DDB1-V5-His = molecular target: T4, DDB1-V5-His (Homo sapiens, UniProt Q16531); test: as above
T4 construct: made in house; host or cells: Sf9 insect cells (Bac-to-bac baculovirus)
T4 sequence (Q16531 whole entry): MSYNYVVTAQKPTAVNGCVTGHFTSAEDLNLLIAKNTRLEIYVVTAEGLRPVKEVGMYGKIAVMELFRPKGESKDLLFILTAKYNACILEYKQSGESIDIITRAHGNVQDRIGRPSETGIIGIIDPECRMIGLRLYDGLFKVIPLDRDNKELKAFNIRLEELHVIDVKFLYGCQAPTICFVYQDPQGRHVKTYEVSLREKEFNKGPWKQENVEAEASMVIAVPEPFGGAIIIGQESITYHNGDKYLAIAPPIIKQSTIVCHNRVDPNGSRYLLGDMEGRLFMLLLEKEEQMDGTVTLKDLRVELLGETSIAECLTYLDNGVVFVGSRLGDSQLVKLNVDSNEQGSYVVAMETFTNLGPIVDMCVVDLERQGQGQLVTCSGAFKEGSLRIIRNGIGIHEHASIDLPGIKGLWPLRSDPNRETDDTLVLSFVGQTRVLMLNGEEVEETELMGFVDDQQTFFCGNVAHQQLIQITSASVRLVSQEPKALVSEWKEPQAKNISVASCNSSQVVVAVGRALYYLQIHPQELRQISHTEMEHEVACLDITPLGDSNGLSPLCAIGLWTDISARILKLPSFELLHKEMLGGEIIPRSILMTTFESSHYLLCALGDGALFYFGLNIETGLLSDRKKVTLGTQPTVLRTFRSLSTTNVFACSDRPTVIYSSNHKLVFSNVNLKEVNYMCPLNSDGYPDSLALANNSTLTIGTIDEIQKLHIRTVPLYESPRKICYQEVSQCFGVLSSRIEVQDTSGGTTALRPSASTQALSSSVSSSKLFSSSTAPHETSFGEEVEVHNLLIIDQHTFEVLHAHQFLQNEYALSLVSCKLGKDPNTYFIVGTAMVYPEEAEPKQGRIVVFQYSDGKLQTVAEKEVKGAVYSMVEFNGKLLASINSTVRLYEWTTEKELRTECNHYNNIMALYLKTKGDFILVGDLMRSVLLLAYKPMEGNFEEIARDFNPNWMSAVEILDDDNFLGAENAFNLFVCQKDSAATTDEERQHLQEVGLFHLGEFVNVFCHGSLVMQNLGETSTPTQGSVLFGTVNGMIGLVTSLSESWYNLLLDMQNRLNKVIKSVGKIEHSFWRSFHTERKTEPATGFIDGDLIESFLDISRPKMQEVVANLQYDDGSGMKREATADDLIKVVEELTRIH
Description: as §1

zCrbn = molecular target: T5, zCrbn (Danio rerio, UniProt Q68EH9, D160E); test: Binding of FH-zCrbn from 293T extracts to thalidomide beads; parameters: species or system zebrafish; conditions: FH-zCrbn in 293T extract
T5 construct: expressed in transfected cells; host or cells: 293T (stably expressing FH-zCrbn)
T5 sequence (Q68EH9 1-431 D160E): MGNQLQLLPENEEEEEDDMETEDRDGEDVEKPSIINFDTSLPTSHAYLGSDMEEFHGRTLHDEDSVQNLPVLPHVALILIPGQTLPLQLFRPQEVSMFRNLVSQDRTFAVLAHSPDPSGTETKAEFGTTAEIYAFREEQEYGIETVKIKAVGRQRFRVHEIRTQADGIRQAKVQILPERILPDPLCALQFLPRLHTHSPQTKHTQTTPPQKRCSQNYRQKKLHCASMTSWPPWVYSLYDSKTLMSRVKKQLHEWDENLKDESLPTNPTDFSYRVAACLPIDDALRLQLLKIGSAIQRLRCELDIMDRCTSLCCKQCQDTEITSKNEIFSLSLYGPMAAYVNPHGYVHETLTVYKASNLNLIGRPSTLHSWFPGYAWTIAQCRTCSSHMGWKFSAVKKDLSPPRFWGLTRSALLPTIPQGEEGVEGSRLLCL
Protocol: (§2) FIG. 14 relates to biochemical analysis results of zCrbn. […] Bound proteins were eluted by thalidomide, and eluate were analyzed by western blotting. zCrbn bound to thalidomide. (B) Lysate from 293T cells overexpressing FH-zCrbn was immunoprecipitated with anti-FLAG antibody, and DDB1 was detected by western blotting. […] (C) Lysate from FLAG-zCrbn (wild type) or FLAG-zCrbn YW/AA overexpressed in 293T cells was mixed with thalidomide beads. For quantification, various amounts of input and eluate fraction were analyzed by western blotting.

zCrbn YW/AA = molecular target: T6, zCrbn YW/AA (Danio rerio, UniProt Q68EH9, W376A/Y374A); test: Binding of FLAG-zCrbn YW/AA from 293T lysate to thalidomide beads; parameters: species or system zebrafish; conditions: FLAG-zCrbn YW/AA in 293T lysate
T6 construct: expressed in transfected cells; host or cells: 293T
T6 sequence (Q68EH9 1-431 Y374A/W376A): T5 sequence (Q68EH9 1-431 D160E) with E160D, Y374A, W376A
Protocol: as §2
If so, its teratogenicity should be alleviated by expression of functionally active but thalidomide-binding-defective zCrbn. To examine this idea, the present inventors prepared mutants in which Y374 and W376 are substituted with alanine (corresponding to YW/AA in humans, namely Y384A/W386A). The zCrbn YW/AA has extremely low thalidomide-binding activity. In the absence of thalidomide, Overexpression of wild-type zCrbn or zCrbn YW/AA had no discernible effect on fin and otic vesicle development. […] Also thalidomide treatment of embryos overexpressing wild-type zCrbn reduced the size of otic vesicles to approximately 66% of the control size. […] Thalidomide-induced fin degeneration was also rescued by overexpression of zCrbn YW/AA.

CRBN, sequence (Q96SW2 whole entry): as the sequence (Q96SW2 whole entry Y384A/W386A) above, with A384Y, A386W counted along it

CRBN eluted from thalidomide-immobilized beads by the compound (CRBN; 293T cell extracts, buffer containing 0.1 to 1 mM compound, one hour, Western blotting): eluted
CRBN in the eluate fraction (CRBN; Example 6, 293T extracts, elution with 1 mM compound): detected
thalidomide-binding activity of CRBN YW/AA (CRBN YW/AA (Y384A/W386A)): extremely low
autoubiquitination of CRBN YW/AA (CRBN YW/AA): not affected
binding of thalidomide to recombinant CRBN-FLAG (CRBN-FLAG): directly binds
binding of thalidomide to recombinant DDB1-V5-His (DDB1-V5-His): indirectly via CRBN
binding of zCrbn to thalidomide (zCrbn): bound
SMILES: O=C1CCC(N2C(=O)c3ccccc3C2=O)C(=O)N1 (stereo not drawn) [thalidomide]
DDB1 in the eluate fraction (DDB1): detected
thalidomide-binding activity of zCrbn YW/AA (zCrbn YW/AA): extremely low; also recorded: obviously weak
